# According to patent US12053441B2, “Formulations for improving the delivery of hydrophobic agents” (THE ROYAL INSTITUTION FOR THE ADVANCEMENT OF LEARNING / …, priority 2018, dated 2024):
# Where a name gives a salt, the structure may show the parent alone.
# System: not given
# Test: not given
# Settings: cited from earlier work
row,Molecule,solubility in water
1,C=CCNC1=C2C[C@@H](C)C[C@H](OC)[C@H](O)[C@@H](C)/C=C(\C)[C@H](OC(N)=O)[C@@H](OC)/C=C\C=C(/C)C(=O)NC(=CC1=O)C2=O [17-AAG],0.1 mg/mL
2,O=C(O)COC(=O)Cc1ccccc1Nc1c(Cl)cccc1Cl [aceclofenac],insoluble
3,Nc1nc2c(ncn2COCCO)c(=O)[nH]1 [acyclovir],< 2.5 mg/mL
4,CCCSc1ccc2nc(NC(=O)OC)[nH]c2c1 [albendazole],insoluble
5,CCCC1O[C@@H]2C[C@H]3[C@@H]4CCC5=CC(=O)C=C[C@]5(C)[C@H]4[C@@H](O)C[C@]3(C)[C@]2(C(=O)CO)O1 (stereo partly drawn) [budesonide],10.7 mg/1
6,CC(=O)O[C@@]12CO[C@@H]1C[C@H](O)[C@@]1(C)C(=O)[C@H](O)C3=C(C)[C@@H](OC(=O)[C@H](O)[C@@H](NC(=O)OC(C)(C)C)c4ccccc4)C[C@@](O)([C@@H](OC(=O)c4ccccc4)[C@H]21)C3(C)C [docetaxel],0.00493 mg/mL
7,COc1cc([C@@H]2c3cc4c(cc3[C@@H](O[C@@H]3O[C@@H]5CO[C@@H](C)O[C@H]5[C@H](O)[C@H]3O)[C@H]3COC(=O)[C@H]23)OCO4)cc(OC)c1O [etoposide],0.2 mg/mL
8,CC(C)(C)NC(=O)[C@H]1CC[C@H]2[C@@H]3CC[C@H]4NC(=O)C=C[C@]4(C)[C@H]3CC[C@]12C [finasteride],0.0117 mg/mL
9,O=C(O)c1ccccc1Nc1cccc(C(F)(F)F)c1 [flufenamic acid],0.00909 mg/mL
10,O=c1cc(-c2ccc(O)c(O)c2)oc2cc(O)cc(O)c12 [luteolin],0.00572 mg/mL
11,COc1ccc2[nH]c([S+]([O-])Cc3ncc(C)c(OC)c3C)nc2c1 (stereo not drawn) [omeprazole],0.359 mg/mL
12,CO[C@H]1C[C@@H]2CC[C@@H](C)[C@@](O)(O2)C(=O)C(=O)N2CCCC[C@H]2C(=O)O[C@H]([C@H](C)C[C@@H]2CC[C@@H](OC(=O)C(C)(CO)CO)[C@H](OC)C2)CC(=O)[C@H](C)/C=C(\C)[C@@H](O)[C@@H](OC)C(=O)[C@H](C)C[C@H](C)/C=C/C=C/C=C/1C [temsirolimus],0.02 mg/mL
13,COc1cc([C@@H]2c3cc4c(cc3[C@@H](O[C@@H]3O[C@@H]5CO[C@@H](c6cccs6)O[C@H]5[C@H](O)[C@H]3O)[C@H]3COC(=O)[C@H]23)OCO4)cc(OC)c1O [teniposide],0.0598 mg/mL

# System: UQ-deficient cells (Mclk1 KO or DKO cells)
# Test: Screening for compounds that increase survival or respiration of UQ-deficient cells
# Assay type: cell-based, mouse
# Settings: not given
# From the text: Four different screening methods were developed. The screening methods 1 to 3 are based on rescue-of-lethality in glucose-free galactose-containing media. The presence of galactose instead of glucose forces the cells to rely on oxidative phosphorylation for energy production. Screening method 4 is based on rescue of respiration, implying that processes immediately dependent on UQ have been rescued. Libraries of small molecules were screened for compounds and/or agents that increase survival of UQ-deficient cells (e.g., Mclk1 KO or DKO cells) in standard or modified galactose media depending on the screen settings.
# The screen uses cells lacking UQ (e.g., Mclk1 KO cells) and consists of three key steps: • 1) Day 0: preparation of Mclk1 KO cells in 96-well plates in standard (glucose-containing) culture medium. • 2) Day 1: changing to glucose-free galactose-containing medium and adding compounds to be screened at a concentration of approximately 10 μM. • 3) Day 4 to 6: following 3 to 5 days of incubation with the compound to be screened, media were removed and cell viability was assayed by resazurin reduction assay.
# The screen also uses cells lacking UQ biosynthesis (e.g., DKO cells) and its protocol is essentially the same as the galactose-only screen except that in step 2, a minimal amount of UQ10 is added into the galactose screening media at a concentration at which the added UQ10 is insufficient by itself to support survival.
# The screen uses Mclk1 SKO cells and its protocol is essentially the same as the galactose-only screen except that in step 2, the screening medium is added with 2,4-DHB at a concentration that allows the KO cells to restore some UQ biosynthetic ability but not sufficiently to allow for a level of UQ production that is sufficient for respiration-dependent growth. Thus, under these conditions a compound that can boost the overall level of UQ biosynthesis might allow the cells to make enough UQ to survive in a respiration-dependent medium. Such a screen can identify compounds that boost UQ biosynthesis at any level, including at the level of gene expression.
# This screening approach aims to directly identify compounds that can boost mitochondrial respiratory chain activity in respiration-deficient cells. […] For this, cells were seeded into XF24 V7 culture plates and treated with testing compounds for 1 to 2 days before a treatment effect on cellular respiration is measured using the Seahorse XF-24e Flux Analyzer. The XF assay was the same as above described except galactose (10 mM) rather glucose was used as the sugar source to increase respiration rate and thus assay sensitivity.
row,Molecule,identified by the screening methods as useful for UQ deficiency
1,CC1(C)CCC(CN2CCN(c3ccc(C(=O)NS(=O)(=O)c4ccc(NCC5CCOCC5)c([N+](=O)[O-])c4)c(Oc4cnc5[nH]ccc5c4)c3)CC2)=C(c2ccc(Cl)cc2)C1 [ABT-199],identified
2,C[C@@H]1COCCN1c1cc(C2(S(C)(=O)=O)CC2)nc(-c2cccc3[nH]ccc23)n1 [AZ20],identified
3,CNC(=O)c1cccc(-c2ccc3c(N4CCOC[C@@H]4C)nc(N4CCOC[C@@H]4C)nc3n2)c1 [AZD2014],identified
4,"Nc1cc(C(F)(F)F)c(-c2cc(N3CCOCC3)nc(N3CCOCC3)n2)cn1 [BKM120, buparlisib]",identified
5,CS(=O)(=O)N1CCc2c(-c3cnc(N)nc3)nc(N3CCOCC3)nc21 [CH5132799],identified
6,CC(C)C[C@H](NC(=O)CNC(=O)c1cc(Cl)ccc1Cl)B(O)O [MLN2238],identified
7,CC(C)n1nc(-c2cc3cc(O)ccc3[nH]2)c2c(N)ncnc21 [PP242],identified
8,CCc1c2c(nc3ccc(O)cc13)-c1cc3c(c(=O)n1C2)COC(=O)[C@]3(O)CC [SN-38],identified
9,Nc1nc(N)c2nc(-c3cccc(O)c3)cnc2n1 [TG100713],identified
10,CNC(=O)Nc1ccc(-c2nc(N3CC4CCC(C3)O4)c3cnn(C4CCC5(CC4)OCCO5)c3n2)cc1 [WYE-125132],identified
11,CNC1CCCN(c2c(F)cc3c(=O)c(C(=O)O)cn(C4CC4)c3c2OC)C1 (stereo not drawn) [balofloxacin],identified
12,CCC(=O)OCC(=O)[C@@]1(OC(=O)CC)[C@@H](C)C[C@H]2[C@@H]3CCC4=CC(=O)C=C[C@]4(C)[C@@]3(F)[C@@H](O)C[C@@]21C [betamethasone dipropionate],identified
13,CCCCC(=O)O[C@]1(C(=O)CO)[C@@H](C)C[C@H]2[C@@H]3CCC4=CC(=O)C=C[C@]4(C)[C@@]3(F)[C@@H](O)C[C@@]21C [betamethasone valerate],identified
14,CC(=O)OCC(=O)[C@@]12N=C(C)O[C@@H]1C[C@H]1[C@@H]3CCC4=CC(=O)C=C[C@]4(C)[C@H]3[C@@H](O)C[C@@]12C [deflazacort],identified
15,CC1(C)O[C@@H]2C[C@H]3[C@@H]4CCC5=CC(=O)C=C[C@]5(C)[C@H]4[C@@H](O)C[C@]3(C)[C@]2(C(=O)CO)O1 [desonide],identified
16,CC(=O)OCC(=O)[C@@]1(O)CC[C@H]2[C@@H]3CCC4=CC(=O)C=C[C@]4(C)[C@@]3(Cl)[C@@H](Cl)C[C@@]21C [dichlorisone acetate],identified

row,Molecule,identified by the screening methods as useful for UQ deficiency
1,C[C@H]1c2cccc(O)c2C(=O)C2=C(O)[C@]3(O)C(=O)C(C(N)=O)=C(O)[C@@H](N(C)C)[C@@H]3[C@@H](O)[C@@H]21 [doxycycline HCl],identified
2,COc1cc2c(cc1Cc1cccc(Cl)c1F)c(=O)c(C(=O)O)cn2[C@H](CO)C(C)C [elvitegravir],identified
3,CC1(C)O[C@@H]2C[C@H]3[C@@H]4C[C@H](F)C5=CC(=O)C=C[C@]5(C)[C@@]4(F)[C@@H](O)C[C@]3(C)[C@]2(C(=O)CO)O1 [fluocinolone acetonide],identified
4,CC(=O)O[C@]1(C(C)=O)CC[C@H]2[C@@H]3C[C@H](C)C4=CC(=O)C=C[C@]4(C)[C@@]3(F)[C@@H](O)C[C@@]21C [fluorometholone acetate],identified
5,CCC(=O)O[C@]1(C(=O)SCF)[C@H](C)C[C@H]2[C@@H]3C[C@H](F)C4=CC(=O)C=C[C@]4(C)[C@@]3(F)[C@@H](O)C[C@@]21C [fluticasone propionate],identified
6,CC1(C)O[C@@H]2C[C@H]3[C@@H]4CCC5=CC(=O)CC[C@]5(C)[C@@]4(F)[C@@H](O)C[C@]3(C)[C@]2(C(=O)CCl)O1 [halcinonide],identified
7,C[C@]12CCC(=O)C=C1CC[C@@H]1[C@@H]2[C@@H](O)C[C@@]2(C)[C@H]1CC[C@]2(O)C(=O)CO [hydrocortisone],identified
8,CCOC(=O)O[C@]1(C(=O)OCCl)CC[C@H]2[C@@H]3CCC4=CC(=O)C=C[C@]4(C)[C@H]3[C@@H](O)C[C@@]21C [ioteprednol etabonate],identified
9,CCc1c2c(nc3ccc(OC(=O)N4CCC(N5CCCCC5)CC4)cc13)-c1cc3c(c(=O)n1C2)COC(=O)[C@]3(O)CC [irinotecan],identified
10,C[C@@H]1C[C@H]2[C@@H]3CCC4=CC(=O)C=C[C@]4(C)[C@@]3(Cl)[C@@H](O)C[C@]2(C)[C@@]1(OC(=O)c1ccco1)C(=O)CCl [mometasone furoate],identified
11,CC(=O)OCC(=O)[C@@]1(O)CC[C@H]2[C@@H]3CCC4=CC(=O)C=C[C@]4(C)[C@H]3[C@@H](O)C[C@@]21C [prednisolone acetate],identified
12,C[C@]12C=CC(=O)C=C1CC[C@@H]1[C@@H]2[C@@H](O)C[C@@]2(C)[C@H]1CC[C@]2(O)C(=O)CO [prednisolone],identified
13,CC1=C(CC(=O)O)c2cc(F)ccc2/C1=C\c1ccc([S+](C)[O-])cc1 (stereo not drawn) [sulindac],identified
14,C[C@]12C=CC(=O)C=C1CC[C@H]1[C@@H]3C[C@@H](O)[C@](O)(C(=O)CO)[C@@]3(C)C[C@H](O)[C@@]12F [triamcinolone],identified
15,Caspofungin acetate,identified

# Same assay, conditions: DKO cells, minimal UQ10 added
row,Molecule,hit in the UQ supplementation screen (method 2)
1,Caspofungin acetate,one of the hits
